In patent US9738641B2, “Bicyclic inhibitors” (Kalvista Pharmaceuticals Limited, priority 2013, dated 2017):

What was measured:
[1] = biological target: Human plasma kallikrein (Homo sapiens (Human), UniProt P03952); experiment: Determination of the IC50 for plasma kallikrein (fluorogenic substrate H-DPro-Phe-Arg-AFC); assay type: biochemical; settings: 37° C., read-out: IC50 (human PKal)
Method: Determination of the IC50 for Plasma Kallikrein
(§1) Plasma kallikrein inhibitory activity in vitro was determined using standard published methods (see e.g. Johansen et al., Int. J. Tiss. Reac. 1986, 8, 185; Shori et al., Biochem. Pharmacol., 1992, 43, 1209; Stürzebecher et al., Biol. Chem. Hoppe-Seyler, 1992, 373, 1025). Human plasma kallikrein (Protogen) was incubated at 37° C. with the fluorogenic substrate H-DPro-Phe-Arg-AFC and various concentrations of the test compound. Residual enzyme activity (initial rate of reaction) was determined by measuring the change in optical absorbance at 410 nm and the IC50 value for the test compound was determined.

[2] = biological target: Human KLK1 (Homo sapiens (Human), UniProt P06870); experiment: Determination of the IC50 for KLK1 (fluorogenic substrate H-DVal-Leu-Arg-AFC); assay type: biochemical; settings: 37° C.
Sequence of Human KLK1 (P06870 25-262): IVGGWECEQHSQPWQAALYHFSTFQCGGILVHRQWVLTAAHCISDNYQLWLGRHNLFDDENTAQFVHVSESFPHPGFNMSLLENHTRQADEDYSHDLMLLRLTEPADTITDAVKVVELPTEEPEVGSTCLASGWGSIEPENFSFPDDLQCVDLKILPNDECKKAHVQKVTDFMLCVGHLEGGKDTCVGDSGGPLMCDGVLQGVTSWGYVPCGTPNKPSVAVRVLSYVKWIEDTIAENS
Method: Determination of the IC50 for KLK1
as §1, with “KLK1” for “Plasma kallikrein”, “KLK1 (Callbiochem)” for “plasma kallikrein (Protogen)”, “H-DVal-Leu-Arg-AFC” for “H-DPro-Phe-Arg-AFC”

[3] = tested on: retinal vascular permeability and retinal blood flow; settings: diabetic rats; cited from earlier work
[4] = in vivo; cited from earlier work

Sequence of Human plasma kallikrein (P03952 391-638): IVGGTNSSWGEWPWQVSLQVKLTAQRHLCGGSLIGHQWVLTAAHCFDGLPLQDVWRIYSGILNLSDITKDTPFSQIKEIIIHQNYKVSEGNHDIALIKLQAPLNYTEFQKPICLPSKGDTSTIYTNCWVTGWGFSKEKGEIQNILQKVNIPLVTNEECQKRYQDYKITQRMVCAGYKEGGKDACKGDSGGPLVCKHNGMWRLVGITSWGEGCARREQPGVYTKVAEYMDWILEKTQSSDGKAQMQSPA
Sequence of Human plasma kallikrein (P03952 20-390 partner): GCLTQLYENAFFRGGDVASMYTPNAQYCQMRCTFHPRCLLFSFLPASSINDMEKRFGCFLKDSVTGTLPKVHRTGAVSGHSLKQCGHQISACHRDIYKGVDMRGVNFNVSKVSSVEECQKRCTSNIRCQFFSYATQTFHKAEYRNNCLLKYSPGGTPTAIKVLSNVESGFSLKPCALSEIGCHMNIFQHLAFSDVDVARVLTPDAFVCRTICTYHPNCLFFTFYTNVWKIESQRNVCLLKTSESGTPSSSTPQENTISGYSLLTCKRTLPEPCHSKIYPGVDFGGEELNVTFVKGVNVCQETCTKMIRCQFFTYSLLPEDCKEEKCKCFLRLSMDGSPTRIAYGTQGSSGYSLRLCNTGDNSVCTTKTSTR

Row | SMILES | IC50 [1] | IC50 [2] | effect on retinal vascular permeability and retinal blood flow abnormalities [3] | oral availability [4]
1 | Cc1cc(CN)ccc1CNc1nccc2c1ccn2Cc1ccc(Cn2ccccc2=O)cc1 [Example 8, 1-{4-[4-(4-Aminomethyl-2-methyl-benzylamino)-pyrrolo[3,2-c]pyridin-1-ylmethyl]-benzyl}-1H-pyridin-2-one] | 6.3 µM | 5.3 µM | – | –
2 | Cc1cnn(Cc2ccc(CN3CCOc4c(NCc5ccc6c(N)nccc6c5)ncnc43)cc2)c1 [Example 10, (1-Amino-isoquinolin-6-ylmethyl)-{8-[4-(4-methyl-pyrazol-1-ylmethyl)-benzyl]-7,8-dihydro-6H-pyrimido[5,4-b][1,4]oxazin-4-yl}-amine] | 20.5 µM | 5.04 µM | – | –
3 | Cc1cc(CN)ccc1CNc1nccc2c1ccn2Cc1csc(-c2ccccc2)n1 [Example 6, (4-Aminomethyl-2-methyl-benzyl)-[1-(2-phenyl-thiazol-4-ylmethyl)-1H-pyrrolo[3,2-c]pyridin-4-yl]-amine] | 8.59 µM | 8.14 µM | – | –
4 | N=C(N)c1ccc(CNC(=O)c2cnn(Cc3ccccc3)c2)cc1 [ASP-440] | – | – | ameliorated both retinal vascular permeability and retinal blood flow abnormalities | poor oral availability

Continued, in another order:

Row | IC50 [1] | IC50 [2] | SMILES | effect on retinal vascular permeability and retinal blood flow abnormalities [3] | oral availability [4]
5 | 5.32 µM | 10.3 µM | c1ccc(-c2nc(Cn3ccc4c(NCc5cnc6[nH]ccc6c5)nccc43)cs2)cc1 [Example 4, [1-(2-Phenyl-thiazol-4-ylmethyl)-1H-pyrrolo[3,2-c]pyridin-4-yl]-(1H-pyrrolo[2,3-b]pyridin-5-ylmethyl)-amine] | – | –
6 | 5.46 µM | 5.69 µM | O=c1ccccn1Cc1ccc(Cn2ccc3c(NCc4cnc5[nH]ccc5c4)nccc32)cc1 [Example 3, 1-(4-{4-[(1H-Pyrrolo[2,3-b]pyridin-5-ylmethyl)-amino]-pyrrolo[3,2-c]pyridin-1-ylmethyl}-benzyl)-1H-pyridin-2-one] | – | –
7 | 8.1 µM | 8.26 µM | NCc1ccc(CNc2nccc3c2ccn3Cc2csc(-c3ccccc3)n2)cc1 [Example 9, (4-Aminomethyl-benzyl)-[1-(2-phenyl-thiazol-4-ylmethyl)-1H-pyrrolo[3,2-c]pyridin-4-yl]-amine] | – | –
8 | 5.37 µM | 29.9 µM | NCc1ccc(CNc2nccc3c2ccn3Cc2ccc(Cn3ccccc3=O)cc2)cc1 [Example 7, 1-{4-[4-(4-Aminomethyl-benzylamino)-pyrrolo[3,2-c]pyridin-1-ylmethyl]-benzyl}-1H-pyridin-2-one] | – | –
9 | 29 µM | 38.6 µM | NCc1ccc(CNc2nccc3c2ccn3CCCCc2ccccc2)cc1 [Example 5, (4-Aminomethyl-benzyl)-[1-(4-phenyl-butyl)-1H-pyrrolo[3,2-c]pyridin-4-yl]-amine] | – | –
